Test results reported in ChEMBL document CHEMBL3745611 (J Med Chem, 2015).
Values after ≈ are worked out from the molar mass of the structure shown. Active and inactive are the calls of the source. No cut-off for these calls is given here.

How the values were obtained:
[1] = target: T1, Transitional endoplasmic reticulum ATPase (Homo sapiens, UniProt P55072); assay: Inhibition of p97 ATPase in human A549 cells assessed as reduction in p62 protein incubated for 6 hrs by immunofluorescence assay; assay type: cell-based
[2] = Half life in mouse liver microsomes; assay type: ADME; settings: for half-life: liver microsomes
[3] = Aqueous solubility of compound; assay type: physicochemical; settings: aqueous medium
[4] = Metabolic stability of compound in mouse liver microsomes; assay type: ADME
[5] = target: T1, Transitional endoplasmic reticulum ATPase
Description: Inhibition of human p97 ATPase incubated for 15 mins by ADP Glo luminescence assay

[6] = target: T1, Transitional endoplasmic reticulum ATPase; remark: listed apart in the source
Description: Inhibition of p97 ATPase in human A549 cells assessed as accumulation of K48 poly-ubiquitinated proteins incubated for 6 hrs by immunofluorescence assay

[7] = target: T1, Transitional endoplasmic reticulum ATPase; remark: listed apart in the source
Description: Inhibition of p97 ATPase in human A549 cells assessed as accumulation of CHOP poly-ubiquitinated proteins incubated for 6 hrs by immunofluorescence assay

A549 [8] = assay: cells; settings: Homo sapiens, A549, 72 h
Description: Cytotoxicity against human A549 cells assessed as cell viability after 72 hrs by Celltiter-Glo assay

HCT-116 [9] = assay: Antitumor activity against human HCT116 cells xenografted in nude mouse assessed as tumor growth inhibition at 50 mg/kg, po q2d for 12 days; assay type: functional, organism-based
Plasma = assay: Drug uptake in plasma of mouse xenografted with human A549 cells at 150 mg/kg, po measured at 2 to 24 hrs; assay type: ADME, organism-based; settings: in vivo
A549 [10] = assay: Drug uptake in human A549 cells xenografted in mouse at 150 mg/kg, po measured at 2 to 24 hrs; assay type: ADME, organism-based; settings: in vivo
[11] = target: T1, Transitional endoplasmic reticulum ATPase; assay: Inhibition of p97 ATPase (unknown origin)
[12] = Mean residence time in mouse at 25 mg/kg, po; settings: in vivo
[13] = Half life in mouse hepatocytes
[14] = Apparent permeability from apical to basolateral side in human Caco2 cells; settings: Caco-2
[15] = Mean residence time in mouse at 3 mg/kg, iv; settings: in vivo
in vivo [16] = settings: mouse, po, 25 mg/kg
Description: Tmax in mouse at 25 mg/kg, po

in vivo [17] = settings: mouse, po, 25 mg/kg; remark: listed apart in the source
Description: Cmax in mouse at 25 mg/kg, po

HCT-116 [18] = assay: Antitumor activity against human HCT116 cells xenografted in nude mouse assessed as tumor growth inhibition at 300 mg/kg, po qd; assay type: functional, organism-based
A549 [19] = assay: Antitumor activity against human A549 cells xenografted in […] SCID beige mouse assessed as tumor growth inhibition at 1 mg/kg, iv administered twice per week; assay type: functional, organism-based
AMO1 = settings: Homo sapiens
Description: Antitumor activity against human AMO1 cells xenografted in nude SCID beige mouse assessed as tumor growth inhibition at 1 mg/kg, iv administered twice per week

T1 sequence (P55072 whole entry): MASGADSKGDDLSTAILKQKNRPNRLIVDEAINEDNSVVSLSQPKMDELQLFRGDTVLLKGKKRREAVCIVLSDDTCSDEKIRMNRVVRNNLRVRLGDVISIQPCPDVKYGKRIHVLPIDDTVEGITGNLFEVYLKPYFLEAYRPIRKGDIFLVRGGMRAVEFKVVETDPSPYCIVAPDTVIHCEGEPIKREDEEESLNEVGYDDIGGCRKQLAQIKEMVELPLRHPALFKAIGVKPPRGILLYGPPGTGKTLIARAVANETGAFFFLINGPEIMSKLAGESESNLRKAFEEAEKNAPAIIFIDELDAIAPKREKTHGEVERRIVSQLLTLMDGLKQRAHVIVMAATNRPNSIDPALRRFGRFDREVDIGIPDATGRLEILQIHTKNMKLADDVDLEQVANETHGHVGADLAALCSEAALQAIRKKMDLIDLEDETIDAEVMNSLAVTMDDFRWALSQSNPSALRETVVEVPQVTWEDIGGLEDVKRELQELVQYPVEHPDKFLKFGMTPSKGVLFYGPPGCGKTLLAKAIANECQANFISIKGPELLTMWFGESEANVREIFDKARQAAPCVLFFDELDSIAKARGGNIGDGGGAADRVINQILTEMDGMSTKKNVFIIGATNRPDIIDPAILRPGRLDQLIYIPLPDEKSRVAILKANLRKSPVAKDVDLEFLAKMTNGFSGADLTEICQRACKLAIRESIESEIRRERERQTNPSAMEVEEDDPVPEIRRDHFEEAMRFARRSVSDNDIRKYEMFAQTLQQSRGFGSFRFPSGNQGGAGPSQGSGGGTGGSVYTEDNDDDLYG

Row | IC50 [5] | IC50 (A549 [8]) | SMILES | also measured
1 | 192 nM | 8640 nM | Cc1cc2ccccc2n1-c1nc2c(c(NCc3ccccc3)n1)CNCC2 | IC50 ([1]; a549): Not Active; t1/2 ([2]; microsomes): Stable; solubility [3]: 750 µg/mL (≈ 2030 µM); Stability [4]: Stable; IC50 [6]: 15300 nM; IC50 [7]: 9150 nM
2 | 3910 nM |  | Cc1cc2c(C(F)(F)F)cccc2n1-c1nc2c(c(NCc3ccccc3)n1)CNCC2 | 
3 | 15 nM | > 40000 nM | Cc1cc2c(-c3nnn[nH]3)cccc2n1-c1nc2c(c(NCc3ccccc3)n1)CNCC2 | 
4 | 342 nM | 6280 nM | Cc1cc2c(F)cccc2n1-c1nc2c(c(NCc3ccccc3)n1)CNCC2 | 
5 | 651 nM | > 40000 nM | FC(F)(F)c1cc2ccccc2n1-c1nc2c(c(NCc3ccccc3)n1)CCCC2 | 
6 | 648 nM | 7850 nM | Cc1cccc2c1cc(C)n2-c1nc2c(c(NCc3ccccc3)n1)CNCC2 | 
7 | 2080 nM |  | COc1cccc2c1cc(C)n2-c1nc2c(c(NCc3ccccc3)n1)CNCC2 | 
8 | 152 nM |  | COc1cccc2c(NCc3ccccc3)nc(-n3c(C)nc4ccccc43)nc12 | 
9 | > 5000 nM |  | Cc1nc2ccccc2n1-c1nc2c(c(NCc3ccccc3)n1)CNCC2 | 
10 | 180 nM |  | COc1nc2ccccc2n1-c1nc(NCc2ccccc2)c2ncsc2n1 | 
11 | 47 nM | 6530 nM | Cc1cc2ccccc2n1-c1nc2c(c(NCc3ccccc3)n1)CCCC2 | 
12 | 3130 nM |  | COc1nc2ccccc2n1-c1nc2c(c(NCc3ccccc3)n1)CNCC2 | 
13 | > 5000 nM |  | COc1ccc2cc(C)n(-c3nc4c(c(NCc5ccccc5)n3)CNCC4)c2c1 | 
14 | 815 nM | 3260 nM | COc1cccc2c(NCc3ccccc3)nc(-n3c(N)nc4ccccc43)nc12 | IC50 ([1]; a549): Not Active; half-life [2]: 7 min; solubility [3]: < 1 µg/mL; IC50 [6]: 6140 nM; IC50 [7]: 6610 nM
15 | 40 nM | 2330 nM | Cc1cc2c(C(N)=O)cccc2n1-c1nc2c(c(NCc3ccccc3)n1)CNCC2 | IC50 ([1]; read-out: IC50): 2000 nM; half-life [2]: 105 min; solubility [3]: 1260 µg/mL (≈ 3040 µM); IC50 [6]: 1790 nM; IC50 [7]: 2860 nM
16 | 445 nM |  | CCc1cc2ccccc2n1-c1nc2c(c(NCc3ccccc3)n1)CCCC2 | 
17 | > 5000 nM |  | CCc1nc2ccccc2n1-c1nc(NCc2ccccc2)c2cccc(OC)c2n1 | 
18 | 144 nM | 8920 nM | Cc1cc2c(C#N)cccc2n1-c1nc2c(c(NCc3ccccc3)n1)CNCC2 | 
19 | 95 nM | > 40000 nM | Cc1cc2c(C(=O)O)cccc2n1-c1nc2c(c(NCc3ccccc3)n1)CNCC2 | 
20 | 3860 nM |  | Cc1ccc2cc(C)n(-c3nc4c(c(NCc5ccccc5)n3)CNCC4)c2c1 | 

Row | IC50 [5] | IC50 (A549 [8]) | SMILES | also measured
21 | > 5000 nM |  | Cc1ccc2c(c1)cc(C)n2-c1nc2c(c(NCc3ccccc3)n1)CNCC2 | 
22 | 153 nM | 4700 nM | NCc1cc2ccccc2n1-c1nc2c(c(NCc3ccccc3)n1)CCCC2 | 
23 | > 5000 nM |  | Cc1cc2c(C(=O)N(C)C)cccc2n1-c1nc2c(c(NCc3ccccc3)n1)CNCC2 | 
24 | 8910 nM |  | Cc1cc2ccc(C#N)cc2n1-c1nc2c(c(NCc3ccccc3)n1)CNCC2 | 
25 | > 5000 nM |  | COc1ccc2c(c1)cc(C)n2-c1nc2c(c(NCc3ccccc3)n1)CNCC2 | 
26 | > 5000 nM |  | Cc1cc2cc(C#N)ccc2n1-c1nc2c(c(NCc3ccccc3)n1)CNCC2 | 
27 | 632 nM | 7240 nM | Cc1cc2c(Cl)cccc2n1-c1nc2c(c(NCc3ccccc3)n1)CNCC2 | 
28 | 795 nM | > 40000 nM | COCc1cc2ccccc2n1-c1nc2c(c(NCc3ccccc3)n1)CCCC2 | 
29 | 76 nM | 7450 nM | COc1nc2ccccc2n1-c1nc2c(c(NCc3ccccc3)n1)CCCC2 | IC50 ([1]; read-out: IC50): 4840 nM; TGI (HCT-116 [18]): Active; half-life [2]: 11 min; solubility [3]: < 1 µg/mL; IC50 [6]: 4240 nM; IC50 [7]: 9340 nM
30 | 145 nM |  | COc1cccc2c(NCc3ccccc3)nc(-n3c(OC)nc4ccccc43)nc12 | 
31 | 4830 nM |  | Cc1cc2c(C(=O)NC(C)C)cccc2n1-c1nc2c(c(NCc3ccccc3)n1)CNCC2 | 
32 | 370 nM |  | COCCOc1cccc2c(NCc3ccccc3)nc(-n3c(OC)nc4ccccc43)nc12 | 
33 | 425 nM |  | Nc1nc2ccccc2n1-c1nc2c(c(NCc3ccccc3)n1)CCCC2 | 
34 | 43 nM | 7110 nM | COc1cc2ccccc2n1-c1nc2c(c(NCc3ccccc3)n1)CCCC2 | 
35 | 68 nM | 8400 nM | OCc1cc2ccccc2n1-c1nc2c(c(NCc3ccccc3)n1)CCCC2 | 
36 | 98 nM |  | Cc1nc2ccccc2n1-c1nc2c(c(NCc3ccccc3)n1)CCCC2 | 
37 | 215 nM | 6030 nM | CNC(=O)c1cccc2c1cc(C)n2-c1nc2c(c(NCc3ccccc3)n1)CNCC2 | 
38 | 71 nM | 2440 nM | Cc1cc2c(C(N)=O)cccc2n1-c1nc2c(c(NCc3ccccc3)n1)CCNC2 | 
39 | > 5000 nM |  | Nc1nc2ccccc2n1-c1nc2c(c(NCc3ccccc3)n1)CNCC2 | 

Second part, the compound before the results:

Row | SMILES | IC50 [5] | IC50 (A549 [8]) | also measured
40 | Cc1nn2ccccc2c1-c1nc2c(c(NCc3ccccc3)n1)CCCC2 | 367 nM | 25000 nM | 
41 | Cc1cc2c(C(N)=O)cccc2n1-c1nc2c(c(NCc3ccccc3)n1)CCCC2 | 6 nM | 590 nM | IC50 ([1]; read-out: IC50): 250 nM; TGI (HCT-116 [9]): Active; Drug uptake (Plasma): Active; Drug uptake (A549 [10]): Active; half-life [2]: 44 min; solubility [3]: 4 µg/mL (≈ 9.72 µM); IC50 [6]: 500 nM; IC50 [7]: 580 nM
42 | CNc1nc2ccccc2n1-c1nc(NCc2ccccc2)c2cccc(OC)c2n1 | 233 nM |  | 
43 | COc1cccc2c(N(C)Cc3ccccc3)nc(-n3c(N)nc4ccccc43)nc12 | > 5000 nM |  | 
44 | O=C(CCl)Nc1cccc(NC2=NS(=O)(=O)c3ccccc32)c1 |  |  | IC50 [11]: 370 nM
45 | Cc1cc2c(C(N)=O)cccc2n1-c1nc2c(c(NCc3ccccc3)n1)COCC2 [CB-5083] |  |  | MRT [12]: 183 min; Drug uptake (Plasma): Active; Drug uptake (A549 [10]): Active; half-life [13]: 172 min; Papp A→B [14]: 52.4 ×10⁻⁶ cm/s; solubility [3]: 32 µg/mL (≈ 77.4 µM); MRT [15]: 70.2 min; Tmax (in vivo [16]): 30 min; Cmax (in vivo [17]): 7.95 µM
46 | COc1cccc2c(NC(=O)c3ccccc3)nc(-n3c(N)nc4ccccc43)nc12 | > 5000 nM |  | 
47 | COc1cccc2c(NCc3ccccc3)nc(-n3c(N(C)C)nc4ccccc43)nc12 | 227 nM |  | 
48 | Cc1[nH]c2ccccc2c1-c1nc2c(c(NCc3ccccc3)n1)CCCC2 | 149 nM | 15800 nM | 
49 | COCCOc1cccc2c(NCc3ccccc3)nc(-n3c(C)nc4ccccc43)nc12 | 304 nM |  | 
50 | COc1cccc2c(NC(C)c3ccccc3)nc(-n3c(N)nc4ccccc43)nc12 (configuration not stated) | > 5000 nM |  | 
51 | COc1cccc2c(NCCc3ccccc3)nc(-n3c(N)nc4ccccc43)nc12 | > 5000 nM |  | 
52 | COc1cccc2c(NCc3ccccc3)nc(-n3c(=O)[nH]c4ccccc43)nc12 | 1070 nM |  | 
53 | COc1cccc2c(NCc3ccccc3)nc(-n3cnc4ccccc43)nc12 | > 5000 nM |  | 
54 | Cc1nc2ccccn2c1-c1nc2c(c(NCc3ccccc3)n1)CCCC2 | 248 nM | 18200 nM | 
55 | COc1cccc2c(NCc3ccccc3)nc(-n3c(N)nc(C)c3C)nc12 | > 5000 nM |  | 
56 | COc1cccc2c(NCc3ccccc3)nc(-n3c(N)nc4c3CCCC4)nc12 | > 5000 nM |  | 
57 | Nc1nc2ccccc2n1-c1nc(NCc2ccccc2)c2ccsc2n1 | 3000 nM |  | 
58 | COc1cccc2c(NCc3ccccc3)nc(-n3c(NC(C)=O)nc4ccccc43)nc12 | > 5000 nM |  | 
59 | COc1cccc2c(NCc3ccccc3)nc(Cn3c(C)nc4ccccc43)nc12 | > 5000 nM |  | 
60 | COCCOc1cccc2c(NCc3ccccc3)nc(-n3c(N)nc4ccccc43)nc12 | 907 nM |  | 
61 | CC(C)C[C@H](NC(=O)[C@H](Cc1ccccc1)NC(=O)c1cnccn1)B(O)O |  |  | TGI (A549 [19]): inactive; TGI (AMO1): Active
62 | Cc1cc2c(C(N)=O)cccc2n1-c1nc2c(c(NCc3ccccc3)n1)CCOC2 |  | 1070 nM | 
63 | COc1cccc2c(CCc3ccccc3)nc(-n3c(N)nc4ccccc43)nc12 | > 5000 nM |  | 
64 | COc1cccc2c(NCc3ccccc3)nc(Nc3nc4ccccc4[nH]3)nc12 | > 5000 nM |  | 
65 | COc1cccc2c(OCc3ccccc3)nc(-n3c(N)nc4ccccc43)nc12 | > 5000 nM |  | 
66 | COc1cccc2c(Cc3ccccc3)nc(-n3c(N)nc4ccccc43)nc12 | > 5000 nM |  | 
